Like-named read-outs stand apart in the source and are kept apart here.
How the values were obtained:
[1] = Tissue FB1 and HFB1 concentrations in rat kidney and liver (HPLC-ESI-MS/MS); assay type: in vivo; details: HFB1 2.47 μmol/kg body weight per day ip, 5 days
From the text: (§1) The study protocol was approved by the Institutional Animal Care and Use Committee, Richard B. Russell Agricultural Research Center, Athens, GA. Male Sprague–Dawley rats (Harlan Industries, Indianapolis, IN, USA), 7 weeks of age at receipt, were individually housed in stainless steel, wire mesh cages in an environmentally controlled room having a 12-h light/dark cycle. Food (2019 Global Rodent Diet, Teklad, Madison, WI, USA) and fresh tap water were provided ad libitum. After a 1 week acclimation period, the animals were randomly assigned to five groups (n = 2/group) having mean weights of 215 to 216 g (weight range of all animals, 211 to 220 g). For five consecutive days, they were observed, weighed, and given an intraperitoneal injection (ip) of 0 (vehicle), 0.5, 1.0, or 2.0 mg/kg body weight FB1 (provided by R. Eppley, US FDA), 1.0 mg/kg body weight HFB1 (positive control) (Voss et al. [2009]), or vehicle (0.9 % physiological saline). These doses corresponded to 0.69, 1.38, and 2.77 μmol FB1/kg body weight and 2.47 μmol/kg body weight HFB1 per day. In order to compare the effects of FB1 and HFB1, dosages will be expressed as molar concentrations and, on this basis, the high dose of FB1 is roughly equivalent to that of the positive control dose of HFB1. Dosing solutions were sterile filtered and administered at a volume rate of 10 ml/kg body weight. The animals were fasted overnight prior to administration of the final dose. The rats were euthanized (CO2 inhalation and exsanguination) 60 to 90 min following the final dose administration and examined by necropsy. The kidney and liver specimens were fixed in 10 % neutral buffered formalin, processed, and microscopically evaluated without knowledge of the animal’s identity or treatment group. Three representative liver and kidney specimens (100 mg each) were also collected, immediately frozen, and stored (−80 °C) until processed, at which time the tissues were thawed and homogenized in distilled/deionized water (1 ml water/100 mg tissue). The homogenates were lyophilized before they were shipped by overnight courier for the analysis of fumonisin metabolites and sphingolipids.
(§2) Lyophilized liver and kidney tissues (100 mg wet weight equivalents) were processed for the quantification of FB1, HFB1, NAFB1, NAHFB1, and sphingolipids. Preparation of the tissue samples was performed according to a previously published method (Harrer et al. [2013]). For the quantification of FB1 and HFB1, a d6-labeled derivative of FB1 (FB1-d6) was used as the internal standard. Synthetic derivatives with a heptadecanoic fatty acid (C17:0) residue were used as internal standards for the quantification of N-acyl-fumonisins and ceramides (N-C17:0-FB1, N-C17:0-HFB1, and N-C17:0-ceramide). The sphingoid bases and their phosphate derivatives were quantified using synthetic derivatives with a C17-acyl-backbone: sphingosine (C17:1), sphingosine-1-phosphate (C17:1), sphinganine (C17:0), sphinganine-1-phosphate (C17:0) as internal standards. The standards were dissolved in methanol:chloroform (2:1, v/v) and then mixed with the tissue samples. The samples spiked with internal standard were kept at room temperature for 30 min before being processed further. The internal standard-spiked samples were first extracted with ethyl acetate, isopropanol, and water (60:30:10, v/v/v) and a second time using methanol, chloroform, and water (60:30:10, v/v/v). The extracts were combined, the solvents removed by evaporation, and the dried samples stored at−80 °C till analyzed.
(§3) For the analysis, the samples were reconstituted in a mixture of water, methanol, and tetrahydrofurane (60:24:16, v/v/v). The NAFB1 and NAHFB1 derivatives having the following fatty acyl chain lengths were quantified by HPLC-MS/MS: C16:0, C18:0, C20:0, C22:0, C24:0, C26:0. Furthermore, we also quantified the unsaturated derivatives C24:1 and C26:1. The results are given as the sum of all N-acyl derivatives of FB1 or HFB1. […]

[2] = In vivo formation of NAFB1 and NAHFB1 in rat kidney and liver (HPLC-ESI-MS/MS); details: kidney; FB1 2.77 or HFB1 2.47 μmol/kg body weight per day ip, 5 days
From the text: as §1, §2, §3

sphingolipid metabolism = experiment: Sphingolipid levels in rat kidney and liver after ip FB1 or HFB1; assay type: in vivo; details: 5 days; for levels of sphingoid bases and 1-phosphates (total sphingosine, total sphinganine) in tissues compared to vehicle-treated controls: ip
From the text: as §1, §2

rat liver and kidney = experiment: Histological examination of rat liver and kidney; assay type: in vivo; details: ip, 5 days; FB1 0.5, 1.0, 2.0 mg/kg or HFB1 1.0 mg/kg body weight per day; n = 2/group
From the text: The study protocol was approved by the Institutional Animal Care and Use Committee, Richard B. Russell Agricultural Research Center, Athens, GA. Male Sprague–Dawley rats (Harlan Industries, Indianapolis, IN, USA), 7 weeks of age at receipt, were individually housed in stainless steel, wire mesh cages in an environmentally controlled room having a 12-h light/dark cycle. Food (2019 Global Rodent Diet, Teklad, Madison, WI, USA) and fresh tap water were provided ad libitum. After a 1 week acclimation period, the animals were randomly assigned to five groups (n = 2/group) having mean weights of 215 to 216 g (weight range of all animals, 211 to 220 g). For five consecutive days, they were observed, weighed, and given an intraperitoneal injection (ip) of 0 (vehicle), 0.5, 1.0, or 2.0 mg/kg body weight FB1 (provided by R. Eppley, US FDA), 1.0 mg/kg body weight HFB1 (positive control) (Voss et al. [2009]), or vehicle (0.9 % physiological saline). […] In order to compare the effects of FB1 and HFB1, dosages will be expressed as molar concentrations and, on this basis, the high dose of FB1 is roughly equivalent to that of the positive control dose of HFB1. […] The kidney and liver specimens were fixed in 10 % neutral buffered formalin, processed, and microscopically evaluated without knowledge of the animal’s identity or treatment group. […]

[3] = parameters: method as in Martinez-Larranaga et al. 1999; details: single dose, ref Martinez-Larranaga et al. 1999, cited from earlier work
[4] = parameters: method as in Bulder et al. 2012; details: ref Bulder et al. 2012; cited from earlier work
[5] = rats fed with fumonisin-contaminated diet; ref Riley and Voss 2006; cited from earlier work
[6] = kidney, dose High: 2.77 μmol FB1/kg or 2.47 μmol HFB1/kg body weight per day ip
[7] = liver, dose High: 2.77 μmol FB1/kg or 2.47 μmol HFB1/kg body weight per day ip
[8] = kidney, dose Low: 0.69 μmol FB1/kg body weight per day ip
[9] = kidney, dose Mid: 1.38 μmol FB1/kg body weight per day ip
[10] = liver, dose Low: 0.69 μmol FB1/kg body weight per day ip
[11] = liver, dose Mid: 1.38 μmol FB1/kg body weight per day ip

Q: For `CCCC[C@@H](C)[C@@H](O)[C@@H](O)C[C@@H](C)C[C@H](O)CCCC[C@@H](O)C[C@H](O)[C@H](C)N` [HFB1, Hydrolyzed fumonisin B1, reference compound], which “HFB1 molar concentration in the liver relative to the kidney” value [1] is on record?
A: about sixfold higher

Q: What about the “HFB1 molar concentration in tissue” value ([1]; kidney) of the same compound?
A: 0.27 nmol/g

Q: And the “unmetabolized HFB1 accumulated in tissue, % of the total dose (TD)” value ([1]; kidney)?
A: < 0.1 % TD

Q: What about the “total amount of HFB1 species in tissue, % of the total dose (TD)” value ([1]; kidney, HFB1 plus N-acyl metabolites) of the same compound?
A: 0.03 % TD

Q: And the “HFB1 molar concentration in tissue” value ([1]; liver)?
A: 1.78 nmol/g

Q: And the “unmetabolized HFB1 accumulated in tissue, % of the total dose (TD)” value ([1]; liver)?
A: 0.7 % TD

Q: And the “metabolites of the dosed mycotoxin found in the kidney” value [2]?
A: less than 0.5 nmol/g

Q: What about the “levels of sphingoid bases and 1-phosphates (total sphingosine, total sphinganine) in tissues compared to vehicle-treated controls” value (sphingolipid metabolism; kidney and liver) of the same compound?
A: did not cause any significant changes

Q: And the Sa/So ratio (sphingolipid metabolism; [6])?
A: 0.3 ± 0.0

Q: And the “sphinganine (Sa)” value (sphingolipid metabolism; [6])?
A: 3 ± 0.7 nmol/g

Q: And the “sphinganine-1-phosphate (Sa1P)” value (sphingolipid metabolism; [6])?
A: 0.6 ± 0.4 nmol/g

Q: What about the “sphingosine (So)” value (sphingolipid metabolism; [6]) of the same compound?
A: 9 ± 2.8 nmol/g

Q: What about the “sphingosine-1-phospate (So1P)” value (sphingolipid metabolism; [6]) of the same compound?
A: 0.4 ± 0.1 nmol/g

Q: And the Sa/So ratio (sphingolipid metabolism; [7])?
A: 0.5 ± 0.4

Q: What about the “sphinganine (Sa)” value (sphingolipid metabolism; [7]) of the same compound?
A: 2 ± 1 nmol/g

Q: And the “sphinganine-1-phosphate (Sa1P)” value (sphingolipid metabolism; [7])?
A: 0.1 ± 0.1 nmol/g

Q: What about the “sphingosine (So)” value (sphingolipid metabolism; [7]) of the same compound?
A: 3 ± 0.2 nmol/g

Q: And the “sphingosine-1-phospate (So1P)” value (sphingolipid metabolism; [7])?
A: 0.2 ± 0.0 nmol/g

Q: What about the “microscopic appearance of kidney and liver” value (rat liver and kidney) of the same compound?
A: could not be differentiated from that of tissues from the vehicle control group

Q: Which “metabolites of the dosed mycotoxin found in the kidney” value [2] does the source give for `CCCC[C@@H](C)[C@@H](OC(=O)C[C@@H](CC(=O)O)C(=O)O)[C@H](C[C@@H](C)C[C@H](O)CCCC[C@@H](O)C[C@H](O)[C@H](C)N)OC(=O)C[C@@H](CC(=O)O)C(=O)O` [FB1, Fumonisin B1] here?
A: less than 0.5 nmol/g

Q: And the tissue ceramide concentrations (sphingolipid metabolism; kidney and liver, FB1 ip)?
A: decreased in both tissues

Q: And the “levels of sphingoid bases and 1-phosphates (total sphingosine, total sphinganine) in tissues compared to vehicle-treated controls” value (sphingolipid metabolism; kidney and liver)?
A: increased amounts

Q: And the Sa/So ratio (sphingolipid metabolism; [6])?
A: 3.8 ± 1.8

Q: And the “sphinganine (Sa)” value (sphingolipid metabolism; [6])?
A: 207 ± 79.9 nmol/g

Q: What about the “sphinganine-1-phosphate (Sa1P)” value (sphingolipid metabolism; [6]) of the same compound?
A: 19.9 ± 1.0 nmol/g

Q: And the “sphingosine (So)” value (sphingolipid metabolism; [6])?
A: 56 ± 6.2 nmol/g

Q: What about the “sphingosine-1-phospate (So1P)” value (sphingolipid metabolism; [6]) of the same compound?
A: 21.6 ± 4.5 nmol/g

Q: What about the Sa/So ratio (sphingolipid metabolism; [8]) of the same compound?
A: 4.1 ± 1.0

Q: And the “sphinganine (Sa)” value (sphingolipid metabolism; [8])?
A: 252 ± 15.6 nmol/g

Q: And the “sphinganine-1-phosphate (Sa1P)” value (sphingolipid metabolism; [8])?
A: 16.7 ± 0.5 nmol/g

Q: What about the “sphingosine (So)” value (sphingolipid metabolism; [8]) of the same compound?
A: 63 ± 11.5 nmol/g

Q: What about the “sphingosine-1-phospate (So1P)” value (sphingolipid metabolism; [8]) of the same compound?
A: 21.4 ± 4.1 nmol/g

Q: And the Sa/So ratio (sphingolipid metabolism; [9])?
A: 2.5 ± 0.2

Q: What about the “sphinganine (Sa)” value (sphingolipid metabolism; [9]) of the same compound?
A: 146 ± 11.3 nmol/g

Q: And the “sphinganine-1-phosphate (Sa1P)” value (sphingolipid metabolism; [9])?
A: 11.3 ± 1.5 nmol/g

Q: And the “sphingosine (So)” value (sphingolipid metabolism; [9])?
A: 59 ± 8.3 nmol/g

Q: What about the “sphingosine-1-phospate (So1P)” value (sphingolipid metabolism; [9]) of the same compound?
A: 20.8 ± 0.7 nmol/g

Q: And the Sa/So ratio (sphingolipid metabolism; [7])?
A: 5.9 ± 0.0

Q: And the “sphinganine (Sa)” value (sphingolipid metabolism; [7])?
A: 81 ± 17.1 nmol/g

Q: And the “sphinganine-1-phosphate (Sa1P)” value (sphingolipid metabolism; [7])?
A: 0.9 ± 0.5 nmol/g

Q: And the “sphingosine (So)” value (sphingolipid metabolism; [7])?
A: 14 ± 2.9 nmol/g

Q: What about the “sphingosine-1-phospate (So1P)” value (sphingolipid metabolism; [7]) of the same compound?
A: 1.0 ± 0.3 nmol/g

Q: And the Sa/So ratio (sphingolipid metabolism; [10])?
A: 4.2 ± 0.9

Q: What about the “sphinganine (Sa)” value (sphingolipid metabolism; [10]) of the same compound?
A: 68 ± 27.6 nmol/g

Q: What about the “sphinganine-1-phosphate (Sa1P)” value (sphingolipid metabolism; [10]) of the same compound?
A: 0.2 ± 0.2 nmol/g

Q: What about the “sphingosine (So)” value (sphingolipid metabolism; [10]) of the same compound?
A: 16 ± 3.3 nmol/g

Q: And the “sphingosine-1-phospate (So1P)” value (sphingolipid metabolism; [10])?
A: 0.4 ± 0.2 nmol/g

Q: What about the Sa/So ratio (sphingolipid metabolism; [11]) of the same compound?
A: 5.5 ± 1.2

Q: What about the “sphinganine (Sa)” value (sphingolipid metabolism; [11]) of the same compound?
A: 88 ± 15.1 nmol/g

Q: And the “sphinganine-1-phosphate (Sa1P)” value (sphingolipid metabolism; [11])?
A: 0.4 ± 0.1 nmol/g

Q: What about the “sphingosine (So)” value (sphingolipid metabolism; [11]) of the same compound?
A: 17 ± 6.4 nmol/g

Q: What about the “sphingosine-1-phospate (So1P)” value (sphingolipid metabolism; [11]) of the same compound?
A: 0.8 ± 0.0 nmol/g

Q: And the “microscopic appearance of kidney and liver” value (rat liver and kidney)?
A: Mild to moderate apoptotic, mitotic, and other effects consistent with fumonisin exposure

Q: What about the AUCtissue/AUCplasma ratio ([3]; kidney) of the same compound?
A: 29.9

Q: What about the AUCtissue/AUCplasma ratio ([3]; liver) of the same compound?
A: 2.03

Q: What about the “absorption after oral exposure” value [4] of the same compound?
A: < 5 % of dose

Q: And the “FB1 concentration (ng/g wet weight) in the kidney relative to the liver” value [5]?
A: approximately tenfold higher

Source: article PMC4298654, “In vivo formation of N-acyl-fumonisin B1” (Mycotoxin Research, 2014)
